Measurements published in patent publication US8030498B2, “Benzoylpyrazole compounds and herbicides containing them” (Ishihara Sangyo Kaisha, Ltd., priority 2005, dated 2011).

How the values were obtained:
[1] = system: greenfoxtail; test: Test Example 2: soil application on the day after sowing, growth inhibition rate, greenfoxtail; type: in vivo, Setaria viridis L.; conditions: 250 g/ha active ingredient, observed on 19th to 24th day
Summary of the method: (§1)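 Seeds were sown in upland field soil in pots, and on the following day compounds formulated as wettable powders or emulsifiable concentrates were diluted in water (500 liter per hectare) and sprayed onto the soil at prescribed active-ingredient doses. Growth was scored visually 19–24 days later, 0 = untreated to 100% = complete kill.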

[2] = system: rice (Oryza sativa L.); test: Test Example 1: foliar treatment, growth inhibition rate, rice; type: in vivo; conditions: 31 g/ha active ingredient, visually observed 17th to 23rd day after application
Summary of the method: (§2)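 Plants grown in upland soil in pots were sprayed on the foliage at set leaf stages (corn 2.0–3.5, greenfoxtail 1.0–3.0, rice 1.0–2.5, wheat 1.7–3.4 leaves) with wettable powder or emulsifiable concentrate formulations diluted in water at 500 L/ha plus 0.1 vol % spreader. Growth inhibition was scored visually 17–23 days later.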

[3] = system: crabgrass (Digitaria sanguinalis L.); test: Test Example 1: foliar treatment, growth inhibition rate, crabgrass; type: in vivo; conditions: 31 g/ha active ingredient, visually observed 17th to 23rd day after application
Summary of the method: (§3)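 Visual scoring of growth inhibition, 0% (untreated) to 100% (complete kill), on days 17–23 following post-emergence spray of formulated compound in water (500 L/ha, 0.1 vol % spreader); plants treated at set leaf stages, e.g. corn 2.0–3.5, wheat 1.7–3.4.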

[4] = system: wheat (Triticum spp.); test: Test Example 1: foliar treatment, growth inhibition rate, wheat; type: in vivo; conditions: 31 g/ha active ingredient, visually observed 17th to 23rd day after application
Summary of the method: as §2

[5] = system: velvetleaf (Abutilon theophrasti MEDIC.); test: Test Example 1: foliar treatment, growth inhibition rate, velvetleaf; type: in vivo; conditions: 31 g/ha active ingredient, visually observed 17th to 23rd day after application
Summary of the method: as §2

[6] = system: velvetleaf; test: Test Example 2: soil application on the day after sowing, growth inhibition rate, velvetleaf; type: in vivo, Abutilon theophrasti MEDIC.; conditions: 250 g/ha active ingredient, observed on 19th to 24th day
Summary of the method: as §1

[7] = system: redroot pigweed; test: Test Example 2: soil application on the day after sowing, growth inhibition rate, redroot pigweed; type: in vivo, Amaranthus retroflexus L.; conditions: 250 g/ha active ingredient, observed on 19th to 24th day
Summary of the method: as §1

[8] = system: rice; test: Test Example 2: soil application on the day after sowing, growth inhibition rate, rice; type: in vivo, Oryza sativa L.; conditions: 250 g/ha active ingredient, observed on 19th to 24th day
Summary of the method: as §1

[9] = system: corn; test: Test Example 2: soil application on the day after sowing, growth inhibition rate, corn; type: in vivo, Zea mays L.; conditions: 250 g/ha active ingredient, observed on 19th to 24th day
Summary of the method: as §1

[10] = system: crabgrass; test: Test Example 2: soil application on the day after sowing, growth inhibition rate, crabgrass; type: in vivo, Digitaria sanguinalis L.; conditions: 250 g/ha active ingredient, observed on 19th to 24th day
Summary of the method: as §1

[11] = system: redroot pigweed (Amaranthus retroflexus L.); test: Test Example 1: foliar treatment, growth inhibition rate, redroot pigweed; type: in vivo; conditions: 31 g/ha active ingredient, visually observed 17th to 23rd day after application
Summary of the method: as §3

[12] = system: barnyardgrass (Echinochloa crus-galli L.); test: Test Example 1: foliar treatment, growth inhibition rate, barnyardgrass; type: in vivo; conditions: 31 g/ha active ingredient, visually observed 17th to 23rd day after application
Summary of the method: as §2

[13] = system: soybean (Glycine max Merr.); test: Test Example 1: foliar treatment, growth inhibition rate, soybean; type: in vivo; conditions: 31 g/ha active ingredient, visually observed 17th to 23rd day after application
Summary of the method: as §3

[14] = system: prickly sida (Sida spinosa L.); test: Test Example 1: foliar treatment, growth inhibition rate, prickly sida; type: in vivo; conditions: 31 g/ha active ingredient, visually observed 17th to 23rd day after application
Summary of the method: as §3

[15] = system: wheat; test: Test Example 2: soil application on the day after sowing, growth inhibition rate, wheat; type: in vivo, Triticum spp.; conditions: 250 g/ha active ingredient, observed on 19th to 24th day
Summary of the method: as §1

[16] = system: corn (Zea mays L.); test: Test Example 1: foliar treatment, growth inhibition rate, corn; type: in vivo; conditions: 31 g/ha active ingredient, visually observed 17th to 23rd day after application
Summary of the method: as §2

[17] = system: barnyardgrass; test: Test Example 2: soil application on the day after sowing, growth inhibition rate, barnyardgrass; type: in vivo, Echinochloa crus-galli L.; conditions: 250 g/ha active ingredient, observed on 19th to 24th day
Summary of the method: as §1

[18] = system: greenfoxtail (Setaria viridis L.); test: Test Example 1: foliar treatment, growth inhibition rate, greenfoxtail; type: in vivo; conditions: 31 g/ha active ingredient, visually observed 17th to 23rd day after application
Summary of the method: as §2

[19] = system: prickly sida; test: Test Example 2: soil application on the day after sowing, growth inhibition rate, prickly sida; type: in vivo, Sida spinosa L.; conditions: 250 g/ha active ingredient, observed on 19th to 24th day
Summary of the method: as §1

[20] = system: soybean; test: Test Example 2: soil application on the day after sowing, growth inhibition rate, soybean; type: in vivo, Glycine max Merr.; conditions: 250 g/ha active ingredient, observed on 19th to 24th day
Summary of the method: as §1

| SMILES | Growth inhibition rate (%) Greenfoxtail [1] | Growth inhibition rate (%) Rice [2] | Growth inhibition rate (%) Crabgrass [3] | Growth inhibition rate (%) Wheat [4] | Growth inhibition rate (%) Velvetleaf [5] | Growth inhibition rate (%) Velvetleaf [6] | Growth inhibition rate (%) redroot pigweed [7] | Growth inhibition rate (%) Rice [8] | Growth inhibition rate (%) Corn [9] | Growth inhibition rate (%) Crabgrass [10] | Growth inhibition rate (%) redroot pigweed [11] | Growth inhibition rate (%) Barnyardgrass [12] | Growth inhibition rate (%) Soybean [13] | Growth inhibition rate (%) Prickly sida [14] | Growth inhibition rate (%) Wheat [15] | Growth inhibition rate (%) Corn [16] | Growth inhibition rate (%) Barnyardgrass [17] | Growth inhibition rate (%) Greenfoxtail [18] | Growth inhibition rate (%) Prickly sida [19] | Growth inhibition rate (%) Soybean [20] |
| --- | --- | --- | --- | --- | --- | --- | --- | --- | --- | --- | --- | --- | --- | --- | --- | --- | --- | --- | --- | --- |
| CCCSC(=O)Oc1c(C(=O)c2ccc(S(C)(=O)=O)c(C(=O)OC)c2C)cnn1C [compound 84] | 100% | 95% | 98% | 50% | 95% | 98% | 100% | 98% | 30% | 100% | 100% | 98% | 95% | 100% | 0% | 10% | 98% | 100% | 98% | 50% |
| CCCSC(=O)Oc1c(C(=O)c2ccc(S(C)(=O)=O)c(C(=O)OC)c2C)cnn1CC [compound 85] | 100% | 95% | 98% | 60% | 98% | 100% | 98% | 100% | 10% | 100% | 95% | 98% | 98% | 98% | 0% | 10% | 100% | 100% | 100% | 50% |
| COC(=O)c1c(S(C)(=O)=O)ccc(C(=O)c2cnn(C)c2OC(=O)SC(C)C)c1C [compound 86] | 95% | 95% | 90% | 20% | 95% | 95% | 100% | 90% | 0% | 100% | 95% | 95% | 85% | 80% | 0% | 30% | 95% | 95% | 90% | 0% |
| CCn1ncc(C(=O)c2ccc(S(C)(=O)=O)c(C(=O)OC)c2C)c1OC(=O)SC(C)C [compound 87] | 70% | 90% | 100% | 10% | 95% | 50% | 95% | 80% | 0% | 90% | 100% | 95% | 95% | 75% | 0% | 10% | 80% | 100% | 70% | 0% |
| CCC(C)SC(=O)Oc1c(C(=O)c2ccc(S(C)(=O)=O)c(C(=O)OC)c2C)cnn1C (stereo not drawn) [compound 88] | 98% | 95% | 95% | 10% | 95% | 100% | 100% | 95% | 0% | 100% | 95% | 98% | 95% | 90% | 0% | 20% | 100% | 100% | 95% | 0% |
| CCC(C)SC(=O)Oc1c(C(=O)c2ccc(S(C)(=O)=O)c(C(=O)OC)c2C)cnn1CC (stereo not drawn) [compound 89] | 80% | 100% | 100% | 20% | 100% | 70% | 90% | 80% | 0% | 95% | 90% | 100% | 95% | 60% | 0% | 20% | 70% | 100% | 50% | 0% |
| COC(=O)c1c(S(C)(=O)=O)ccc(C(=O)c2cnn(C)c2OC(=O)SC(C)(C)C)c1C [compound 90] | 100% | 40% | 60% | 0% | 95% | 100% | 100% | 100% | 10% | 100% | 80% | 80% | 80% | 75% | 0% | 0% | 100% | 95% | 98% | 30% |
| CCn1ncc(C(=O)c2ccc(S(C)(=O)=O)c(C(=O)OC)c2C)c1OC(=O)SC(C)(C)C [compound 91] | 60% | 90% | 98% | 0% | 95% | 70% | 100% | 80% | 0% | 95% | 98% | 95% | 98% | 75% | 0% | 20% | 90% | 98% | 95% | 30% |
| COC(=O)c1c(S(C)(=O)=O)ccc(C(=O)c2cnn(C)c2OC(=O)SCc2ccccc2)c1C [compound 92] | 70% | 0% | 0% | 0% | 70% | 50% | 70% | 80% | 0% | 95% | 10% | 0% | 10% | 10% | 0% | 0% | 80% | 60% | 60% | 0% |
